Literature values in patent publication EP0759941B1, “HETERODIMER POLYPEPTIDEIMMUNOGEN CARRIER COMPOSITION AND METHOD FOR THEIR USE” (S.P.I. SYNTHETIC PEPTIDES INCORPORATED, priority 1994, dated 1995).

Tested on: primed (human) donors
Conditions: recognized by all primed (human) donors; cited from earlier work

For “TT2: tetanus toxoid residues 830-846; SEQ ID NO:12; T-cell antigen (QYIKANSKFIGITELKK; UniProt P04958 830-846, looked up, fragment) [tetanus toxoid residues 830-846; T-cell antigen]”, the “immunogenicity (recognition by primed donors irrespective of MHC haplotypes)” value is listed as “universally immunogenic”.

In the case of “TT3: tetanus toxoid residues 947-967; SEQ ID NO:14 (FNNFTVSFWLRVPKVSASHLE; UniProt P04958 947-967, looked up, fragment)”, the “immunogenicity (recognition by primed donors irrespective of MHC haplotypes)” value is given as “universally immunogenic”.
